# According to patent US3997549A, “N-arylsulfenylated derivatives of benzofuranyl methylcarbamates” (priority 1973, dated 1976):
# Where two headings read alike, the source gives them in different places.
# Experiments:
# [1] = test system: houseflies; test: whole plant or invertebrate; conditions: Musca domestica, topical, 24 h, read-out: Houseflies LD50
# Protocol: Toxicity of the compounds of the present invention to houseflies was tested using the technique described by March and Metcalf in Bull. Calif. State Dept. Agr. […] Adult female houseflies were treated with one drop of acetone solution, applied to the prothorax, using a syringe calibrated to deliver 1.00 ± 0.05 mm^3 drops. Twenty flies were treated at each dosage, each test compound was applied at 8 to 10 dosage levels. Each test was replicated three times. […] A one-inch square of cotton saturated with 40% sugar solution was provided for food in each carton. The cartons of flies were held in a constant temperature chamber at 60° F and 60% relative humidity for 24 hours before mortality counts were made. Flies totally unable to make crawling or walking movements were counted as dead. LD50 values were calculated in the conventional manner.
# [2] = test system: Culex fatigans; test: whole plant or invertebrate; conditions: Culex quinquefasciatus, 24 h, read-out: Mosquitoes LC50
# Protocol: The appropriate amount of stock solution was added with stirring to 100 ml of tap water and 20-25 fourth instar larvae of Culex fatigans were placed in the solution. After twenty-four hours, the counts were taken. Larvae not able to rise to the surface on touch were counted as dead. Each concentration was run in duplicate and each material was run on two or three different days. The average percent mortality was plotted against the logarithm of the concentration (in ppm) and the LC50 value determined by inspection.
# [3] = in vivo; conditions: mouse, po
# Protocol: Acute oral toxicity of the compounds of the present invention to mice was determined after the manner of Hollingworth, Fukuto, and Metcalf in J. Agr. […] A dose of 0.25 ml of each solution was administered to each of four female white Swiss mice using the "bolus" - tipped syringe. […] Final mortality determinations were made forty-eight hours after treatment.
# [4] = test system: confused flour beetle; test: Initial contact activity, confused flour beetle; assay type: in vivo; conditions: Tribolium confusum; 1250 ppm, 48 h exposure; read-out: % Kill, FB (initial contact)
# Protocol: (§1) Initial Contact Activity: One-half gram of test compound was dissolved in 40 ml of acetone and this solution was dispersed in 360 ml of water containing one drop of isooctyl phenyl polyethoxyethanol. An aliquot of this solution was diluted with water to provide a solution containing 1250 ppm of active ingredient. Test organisms and techniques were as follows: The activities against the Mexican bean beetle (Epilachna varivestis Muls.) and the southern army worm (Prodenia eridania [Cram.]) were evaluated by dipping the leaves of pinto bean plants into the test solution and infesting the leaves with the appropriate immature form insects when the foliage had dried; the activity against the pea aphid (Macrosiphum pisi [Harris]) was evaluated on broad bean plants whose leaves were dipped before infestation with adult aphids; the activity against the two-spotted spider mite (Tetranychus urticae [L.]) was evaluated on pinto bean plants whose leaves were dipped after infestation with adult mites; the activities against the milkweed bug (Oncopeltus fascinatus [Dallas]) and the plum curculio (Conotrachelus nenuphar [Herbst]) were evaluated by spraying the test solutions into glass dishes containing the adult insects; the activities against the granary weevil (Sitophilus granarius [L.]) and the confused flour beetle (Tribolium confusum [duVal]) were evaluated by introducing the insects into glass dishes which had been previously sprayed with test solution and allowed to dry. All organisms in the test were maintained in a holding room at 80° F. and 50% relative humidity for an exposure period of forty-eight hours. At this time the number of dead and living insects were counted and the percent kill was calculated.
# [5] = test system: confused flour beetle; test: Residual contact activity, confused flour beetle; assay type: in vivo; conditions: Tribolium confusum, 48 h; 1250 ppm; 7 days; read-out: % Kill, FB (residual contact)
# Protocol: as §1
# The residual contact activity of the compounds was determined on the same organisms using the technique described above, except that in each case the treated surface was allowed to dry and was exposed to normal light and air for seven days before introduction of the mites or insects. The compounds show a high order of residual activity toward the test insects.
# [6] = test system: southern army worm; conditions: 2880 min
# [7] = test system: Mexican bean beetle; test: whole plant or invertebrate; conditions: Epilachna varivestis, 48 h, read-out: % Kill, BB (systemic)
# [8] = test system: pea aphid; test: whole plant or invertebrate; conditions: Acyrthosiphon pisum, 48 h, read-out: % Kill, PA (systemic)
# [9] = test system: two-spotted spider mite; test: whole plant or invertebrate; conditions: Tetranychus urticae, 48 h, read-out: % Kill, SM (systemic)
# [10] = test system: milkweed bug; test: Initial contact activity, milkweed bug; conditions: Oncopeltus fasciatus, 48 h, read-out: % Kill, MWB (initial contact)
# [11] = test system: plum curculio; test: Initial contact activity, plum curculio; conditions: Conotrachelus nenuphar, 48 h, read-out: % Kill, PC (initial contact)
# [12] = test system: milkweed bug; test: Residual contact activity, milkweed bug; conditions: Oncopeltus fasciatus, 48 h, read-out: % Kill, MWB (residual contact)
# [13] = test system: granary weevil; test: Initial contact activity, granary weevil; conditions: Sitophilus granarius, 48 h, read-out: % Kill, GW (initial contact)
# [14] = test system: plum curculio; test: Residual contact activity, plum curculio; conditions: Conotrachelus nenuphar, 48 h, read-out: % Kill, PC (residual contact)
# [15] = test system: granary weevil; test: Residual contact activity, granary weevil; conditions: Sitophilus granarius, 48 h, read-out: % Kill, GW (residual contact)
# [16] = test system: southern army worm; test: Initial contact activity, southern army worm; conditions: 1250 ppm, 48 h exposure
# [17] = test system: Mexican bean beetle; test: Initial contact activity, Mexican bean beetle; conditions: Epilachna varivestis, 48 h, read-out: % Kill, BB (initial contact)
# [18] = test system: southern army worm; test: Residual contact activity, southern army worm; conditions: 1250 ppm; 7 days; 2880 min
# [19] = test system: Mexican bean beetle; test: Residual contact activity, Mexican bean beetle; conditions: Epilachna varivestis, 48 h, read-out: % Kill, BB (residual contact)
# [20] = test system: two-spotted spider mite; test: Initial contact activity, two-spotted spider mite; conditions: Tetranychus urticae, 48 h, read-out: % Kill, SM (initial contact)
# [21] = test system: two-spotted spider mite; test: Residual contact activity, two-spotted spider mite; conditions: Tetranychus urticae, 48 h, read-out: % Kill, SM (residual contact)
# [22] = test system: pea aphid; test: Initial contact activity, pea aphid; conditions: Acyrthosiphon pisum, 48 h, read-out: % Kill, PA (initial contact)
# [23] = test system: pea aphid; test: Residual contact activity, pea aphid; conditions: Acyrthosiphon pisum, 48 h, read-out: % Kill, PA (residual contact)
# [24] = 39 ppm soil watering, separate test vs carbofuran
# [25] = 39 ppm soil watering, group printed before the slash (separate test vs carbofuran)
SMILES,LD50 [1],LC50 [2],LD50 at 48 h [3],"% Kill, AW (systemic) ([6]; 156 ppm soil watering)",mortality at 39 ppm [7],mortality at 156 ppm [7],mortality at 39 ppm [8],mortality at 39 ppm [9],mortality at 156 ppm [9],mortality at 1250 ppm [10],mortality at 1250 ppm [11],mortality at 1250 ppm [12],mortality at 1250 ppm [13],mortality at 1250 ppm [14],mortality at 1250 ppm [15],"% Kill, AW (initial contact) [16]",mortality at 1250 ppm [17],"% Kill, AW (residual contact) [18]",mortality at 1250 ppm [19],mortality at 1250 ppm [20],other results
"Cc1ccccc1SN(C)C(=O)Oc1cccc2c1OC(C)(C)C2 [Example II, 2,3-Dihydro-2,2-dimethyl-7-benzofuranyl (methyl)(2-methylphenylthio)carbamate]",3.7 mg/kg,4 ng/mL,100 to 125 mg/kg,100%,100%,100%,100%,5%,5%,100%,100%,100%,100%,100%,100%,100%,100%,100%,100%,28%,"mortality at 1250 ppm [4]: 98%; mortality at 1250 ppm [5]: 98%; % Kill, AW (systemic) [6, 24]: 85%; mortality at 1250 ppm [21]: 13%"
"CN(Sc1ccc(C(C)(C)C)cc1)C(=O)Oc1cccc2c1OC(C)(C)C2 [Example III, 2,3-Dihydro-2,2-dimethyl-7-benzofuranyl (4-tert-butylphenylthio)(methyl)carbamate]",2.7 mg/kg,2.5 ng/mL,75 mg/kg,0%,56%,100%,5%,1%,4%,100%,100%,100%,100%,95%,100%,100%,100%,31%,100%,27%,"mortality at 1250 ppm [4]: 100%; mortality at 1250 ppm [5]: 100%; % Kill, AW (systemic) [6, 24]: 0%; mortality at 156 ppm [8]: 43%; mortality at 1250 ppm [21]: 2%"
"Cc1cc(Br)ccc1SN(C)C(=O)Oc1cccc2c1OC(C)(C)C2 [XI, 2,3-Dihydro-2,2-dimethyl-7-benzofuranyl (4-bromo-2-methylphenylthio)(methyl)carbamate]",11.2 mg/kg,2.5 ng/mL,100 to 150 mg/kg,100%,95%,100%,100%,23%,28%,100%,100%,95%,100%,40%,100%,100%,100%,100%,100%,9%,"% Kill, AW (systemic) [6, 25]: 75%; mortality at 156 ppm [8]: 100%; mortality at 1250 ppm [22]: 35%; mortality at 1250 ppm [23]: 10%; mortality at 1250 ppm [21]: 3%"
"CN(Sc1ccc2c(c1)OCO2)C(=O)Oc1cccc2c1OC(C)(C)C2 [XIV, 2,3-Dihydro-2,2-dimethyl-7-benzofuranyl (methyl)(3,4-methylenedioxyphenylthio)carbamate]",5 mg/kg,6.5 ng/mL,10 to 25 mg/kg,64%,90%,94%,100%,10%,16%,100%,100%,100%,100%,80%,100%,100%,100%,100%,100%,38%,"% Kill, AW (systemic) [6, 25]: 14%; mortality at 156 ppm [8]: 100%; mortality at 1250 ppm [22]: 100%; mortality at 1250 ppm [23]: 10%; mortality at 1250 ppm [21]: 2%"
